Experimental data from patent publication US20090069565A1, “NEW INDOLE DERIVATIVES AS FACTOR XA INHIBITORS” (priority 2001, published 2009).
pKi: −log10 of the molar value. Read-outs that look alike come from different tables or passages of the source.

Molecular target: human factor Xa (Homo sapiens, UniProt P00742)
Assay: Factor Xa assay (chromogenic, substrate S-2765);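 also: purified enzyme preincubated with inhibitor for 10 min before substrate addition, final reaction volume 100 µl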
Type: biochemical
[1] = inhibition constant for factor Xa, purified enzyme 0.5 nM, substrate S-2765 140 μM, 25° C., pH 7.8, Ki=IC50/{1+(substrate concentration/Km)}, read-out: Ki(FXa)

Sequence of human factor Xa (P00742 235-488 limits assumed): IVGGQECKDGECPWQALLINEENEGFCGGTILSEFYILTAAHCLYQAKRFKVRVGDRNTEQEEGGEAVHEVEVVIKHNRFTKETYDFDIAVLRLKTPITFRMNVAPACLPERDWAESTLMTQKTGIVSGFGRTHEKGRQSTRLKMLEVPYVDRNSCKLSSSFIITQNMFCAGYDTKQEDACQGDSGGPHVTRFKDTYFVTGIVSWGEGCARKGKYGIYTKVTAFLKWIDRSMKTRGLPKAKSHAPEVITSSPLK
Sequence of human factor Xa (P00742 41-179 partner limits assumed): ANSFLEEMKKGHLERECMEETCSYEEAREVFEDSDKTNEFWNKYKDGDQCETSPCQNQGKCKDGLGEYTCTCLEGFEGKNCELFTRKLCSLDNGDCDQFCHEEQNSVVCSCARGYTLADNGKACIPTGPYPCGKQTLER

| SMILES | pKi (read-out: Ki(FXa)) | also measured |
| --- | --- | --- |
| CC(=O)N1CCC(NC(=O)c2cc3ccccc3n2Cc2cc(-c3ccc(Cl)s3)on2)CC1 [Example 192, 1-[5-(5-Chloro-thiophen-2-yl)-isoxazol-3-ylmethyl]-1H-indole-2-carboxylic acid (1-acetyl-piperidin-4-yl)-amide] | – | pKi [1]: 6.12 |
| CC(C)N1CCC(NC(=O)c2cc3cc(F)cc(F)c3n2Cc2cc(-c3ccc(Cl)s3)on2)CC1 [Example 26] | 10.00 | – |
| CC(C)N1CCC(NC(=O)c2cc3ccccc3n2Cc2cc(-c3ccc(Cl)s3)no2)CC1 [Example 121, 1-[3-(5-Chloro-thiophen-2-yl)-isoxazol-5-ylmethyl]-1H-indole-2-carboxylic acid (1-isopropyl-piperidin-4-yl)-amide] | – | pKi [1]: 8.52 |
| O=C(c1cc2ccccc2n1Cc1cc(-c2ccc(Cl)s2)on1)N1CCC(Nc2ccncc2)CC1 [Example 31, {1-[5-(5-Chloro-thiophen-2-yl)-isoxazol-3-ylmethyl]-1H-indol-2-yl}-[4-(pyridin-4-ylamino)-piperidin-1-yl]-methanone] | – | pKi [1]: 7.74 |
| CC(C)N1CCC(NC(=O)c2cc3cccc(NC(=O)C(C)(C)C)c3n2Cc2cc(-c3ccc(Cl)s3)on2)CC1 [Example 14] | 5.76 | – |
| CN1CCN(NC(=O)c2cc3ccccc3n2Cc2cc(-c3ccc(Cl)s3)on2)CC1 [Example 183, 1-[5-(5-Chloro-thiophen-2-yl)-isoxazol-3-ylmethyl]-1H-indole-2-carboxylic acid (4-methyl-piperazin-1-yl)-amide] | 7.12 | – |
| O=CN1CCC(NC(=O)c2cc3ccccc3n2Cc2cc(-c3ccc(Cl)s3)on2)CC1 [Example 189, 1-[5-(5-Chloro-thiophen-2-yl)-isoxazol-3-ylmethyl]-1H-indole-2-carboxylic acid (1-formyl-piperidin-4-yl)-amide] | 5.69 | – |
| O=C(c1cc2cc([N+](=O)[O-])ccc2n1Cc1cc(-c2ccc(Cl)s2)on1)N1CCC(Nc2ccncc2)CC1 [Example 32, {1-[5-(5-Chloro-thiophen-2-yl)-isoxazol-3-ylmethyl]-5-nitro-1H-indol-2-yl}-[4-(pyridin-4-ylamino)-piperidin-1-yl]-methanone] | 7.43 | – |
| COc1cccc2c1cc(C(=O)NC1CCN(C(C)C)CC1)n2CCc1ccc(Cl)cc1 [Example 172, 1-[2-(4-Chloro-phenyl)-ethyl]-4-methoxy-1H-indole-2-carboxylic acid (1-isopropyl-piperidin-4-yl)-amide] | 7.39 | – |
| COc1cccc(Cn2c(C(=O)NC3CCN(C(C)C)CC3)cc3cc(OC)ccc32)c1 [Example 72, 5-Methoxy-1-(3-methoxy-benzyl)-1H-indole-2-carboxylic acid (1-isopropyl-piperidin-4-yl)-amide] | 6.78 | – |
| CC(C)N1CCC(NC(=O)c2cc3cccc(Cl)c3n2Cc2cc(-c3ccc(Cl)s3)on2)CC1 [Example 20] | – | pKi: 8.15 |
| NC(=O)N1CCC(NC(=O)c2cc3ccccc3n2Cc2cc(-c3ccc(Cl)s3)on2)CC1 [Example 190, 1-[5-(5-Chloro-thiophen-2-yl)-isoxazol-3-ylmethyl]-1H-indole-2-carboxylic acid (1-carbamoyl-piperidin-4-yl)-amide] | – | pKi [1]: 5.97 |
| CC(C)N1CCC(NC(=O)c2cc3ccccc3n2Cc2ccc(OC(F)(F)F)cc2)CC1 [Example 146, 1-(4-Trifluoromethoxy-benzyl)-1H-indole-2-carboxylic acid (1-isopropyl-piperidin-4-yl)-amide] | 6.36 | – |
| CC(C)N1CCC(NC(=O)c2cc3cc(F)ccc3n2Cc2cc(-c3ccc(Cl)s3)on2)CC1 [Example 23] | – | pKi [1]: 8.52 |
| COc1cccc(Cn2c(C(=O)NCC3CCN(c4ccncc4)CC3)cc3ccccc32)c1 [Example 55] | 5.77 | – |
| CC(C)N1CCC(NC(=O)c2c(Br)c3ccccc3n2Cc2cc(-c3ccc(Cl)s3)on2)CC1 [Example 123, 3-Bromo-1-[5-(5-chloro-thiophen-2-yl)-isoxazol-3-ylmethyl]-1H-indole-2-carboxylic acid (1-isopropyl-piperidin-4-yl)-amide] | – | pKi [1]: 8.70 |
| CC(C)N1CCC(NC(=O)c2cc3ccccc3n2Cc2cc(-c3ccc(Cl)cc3)on2)CC1 [Example 212, 1-[5-(4-Chloro-phenyl)-isoxazol-3-ylmethyl]-1H-indole-2-carboxylic acid (1-isopropyl-piperidin-4-yl)-amide] | – | pKi [1]: 6.09 |

Now from value to compound, other results behind:

| pKi (read-out: Ki(FXa)) | SMILES | also measured |
| --- | --- | --- |
| 6.64 | O=C(Cn1c(C(=O)NCC2CCN(c3ccncc3)CC2)cc2ccccc21)Nc1ccc(Cl)cc1 [Example 252, 1-[(4-chloro-phenylcarbamoyl)-methyl]-1H-indole-2-carboxylic acid (3,4,5,6-tetrahydro-2H-[1,4′]bipyridinyl-4-ylmethyl)-amide] | – |
| 6.12 | O=C(Cn1c(C(=O)N2CCC(N3CCCC3)CC2)cc2ccccc21)Nc1ccc(Cl)cc1 [Example 256, N-(4-chloro-phenyl)-2-[2-(4-pyrrolidin-1-yl-piperidine-1-carbonyl)-indol-1-yl]-acetamide] | – |
| 6.15 | CC(C)N1CCC(NC(=O)c2cc3cc(F)ccc3n2CC(=O)Nc2ccc(Cl)cn2)CC1 [Example 217, 1-[(5-Chloro-pyridin-2-ylcarbamoyl)-methyl]-5-fluoro-1H-indole-2-carboxylic acid (1-isopropyl-piperidin-4-yl)-amide] | – |
| 7.08 | CCOC(=O)CN(C(=O)c1cc2c(Cl)ccc(Cl)c2n1Cc1cc(-c2ccc(Cl)s2)on1)C1CCN(C(C)C)CC1 [Example 226, [{4,7-Dichloro-1-[5-(5-chloro-thiophen-2-yl)-isoxazol-3-ylmethyl]-1H-indole-2-carbonyl}-(1-isopropyl-piperidin-4-yl)-amino]-acetic acid ethyl ester] | – |
| 7.38 | CC(C)OC(=O)c1ccc2c(c1)cc(C(=O)NC1CCN(C(C)C)CC1)n2Cc1cc(-c2ccc(Cl)s2)on1 [Example 235, 1-[5-(5-Chloro-thiophen-2-yl)-isoxazol-3-ylmethyl]-2-(1-isopropyl-piperidin-4-ylcarbamoyl)-1H-indole-5-carboxylic acid isopropyl ester] | – |
| 7.10 | CC(C)N1CCC(NC(=O)c2cc3ccccc3n2Cc2cc3ccc(Cl)cc3c(Cl)n2)CC1 [Example 210, 1-(1,7-Dichloro-isoquinolin-3-ylmethyl)-1H-indole-2-carboxylic acid (1-isopropyl-piperidin-4-yl)-amide] | – |
| 6.86 | COCCN1CCC(NC(=O)c2cc3ccccc3n2Cc2cc(-c3ccc(Cl)s3)on2)CC1 [Example 261, 1-[5-(5-chloro-thiophen-2-yl)-isoxazol-3-ylmethyl]-1H-indole-2-carboxylic acid [1-(2-methoxy-ethyl)-piperidin-4-yl]-amide] | – |
| 7.89 | CC(C)N1CCC(NC(=O)c2cc3c(C(=O)OCOC(=O)C(C)(C)C)cccc3n2Cc2cc(-c3ccc(Cl)s3)on2)CC1 [Example 270, 1-[5-(5-Chloro-thiophen-2-yl)-isoxazol-3-ylmethyl]-2-(1-isopropyl-piperidin-4-ylcarbamoyl)-1H-indole-4-carboxylic acid 2,2-dimethyl-propionyloxymethyl ester] | – |
| 8.40 | CC(C)N1CCC(NC(=O)c2cc3cc(C(=O)O)ccc3n2Cc2nnc(-c3ccc(Cl)s3)s2)CC1 [Example 242, 1-[5-(5-Chloro-thiophen-2-yl)-[1,3,4]thiadiazol-2-ylmethyl]-2-(1-isopropyl-piperidin-4-ylcarbamoyl)-1H-indole-5-carboxylic acid] | – |
| 6.05 | NCC(=O)N1CCC(NC(=O)c2cc3ccccc3n2Cc2cc(-c3ccc(Cl)s3)on2)CC1 [Example 267, 1-[5-(5-chloro-thiophen-2-yl)-isoxazol-3-ylmethyl]-1H-indole-2-carboxylic acid [1-(2-amino-acetyl)-piperidin-4-yl]-amide] | – |
| 7.92 | N#Cc1c(C(=O)NC2CCN(c3ccncc3)CC2)n(Cc2cc(-c3ccc(Cl)s3)on2)c2ccccc12 [Example 206, 1-[5-(5-Chloro-thiophen-2-yl)-isoxazol-3-ylmethyl]-3-cyano-1H-indole-2-carboxylic acid (3,4,5,6-tetrahydro-2H-[1,4′]bipyridinyl-4-yl)-amide] | – |
| 8.00 | CC(C)OC(=O)c1ccc2c(c1)cc(C(=O)NC1CCN(C(C)C)CC1)n2CC(=O)Nc1ccc(Cl)cc1 [Example 243, 1-[(4-Chloro-phenylcarbamoyl)-methyl]-2-(1-isopropyl-piperidin-4-ylcarbamoyl)-1H-indole-5-carboxylic acid isopropyl ester] | – |
| 6.70 | O=C(NC1CCN(c2ccnc(Cl)n2)CC1)c1cc2ccccc2n1Cc1cc(-c2ccc(Cl)s2)on1 [Example 193, 1-[5-(5-Chloro-thiophen-2-yl)-isoxazol-3-ylmethyl]-1H-indole-2-carboxylic acid [1-(2-chloro-pyrimidin-4-yl)-piperidin-4-yl]-amide] | – |
| 7.26 | CC(C)N1CCC(N(CC(=O)O)C(=O)c2cc3c(Cl)ccc(Cl)c3n2Cc2cc(-c3ccc(Cl)s3)on2)CC1 [Example 232, [{4,7-Dichloro-1-[5-(5-chloro-thiophen-2-yl)-isoxazol-3-ylmethyl]-1H-indole-2-carbonyl}-(1-isopropyl-piperidin-4-yl)-amino]-acetic acid] | – |
| 6.11 | N#CCN1CCC(NC(=O)c2cc3ccccc3n2Cc2cc(-c3ccc(Cl)s3)on2)CC1 [Example 259, 1-[5-(5-chloro-thiophen-2-yl)-isoxazol-3-ylmethyl]-1H-indole-2-carboxylic acid (1-cyanomethyl-piperidin-4-yl)-amide] | – |
| 7.04 | CC(OC(=O)c1ccc2c(c1)cc(C(=O)NC1CCN(C(C)C)CC1)n2Cc1cc(-c2ccc(Cl)s2)on1)OC(=O)C(C)(C)C (stereo not shown) [Example 271, 1-[5-(5-Chloro-thiophen-2-yl)-isoxazol-3-ylmethyl]-2-(1-isopropyl-piperidin-4-ylcarbamoyl)-1H-indole-5-carboxylic acid 1-(2,2-dimethyl-propionyloxy)-ethyl ester] | – |
| 7.46 | CC(C)N1CCC(NC(=O)c2cc3cc(C(=O)OCOC(=O)C(C)(C)C)ccc3n2Cc2cc(-c3ccc(Cl)s3)on2)CC1 [Example 240, 1-[5-(5-Chloro-thiophen-2-yl)-isoxazol-3-ylmethyl]-2-(1-isopropyl-piperidin-4-ylcarbamoyl)-1H-indole-5-carboxylic acid 2,2-dimethyl-propionyloxymethyl ester] | – |
